Laboratory results from patent EP0733369A1, “Protease inhibitors, a DNA construct for the expression of a protease and a process for measuring proteases and/or protease inhibitors” (Stichting REGA V.Z.W., priority 1995, dated 1996).
Entries after “also recorded” stand apart in the source; their conditions may differ. Counter-ions that a name gives are not always drawn.

Key:
u-PA = u-PA (Homo sapiens, UniProt P00749); test: ID50 on homogeneous enzyme; format: biochemical
t-PA = t-PA (Homo sapiens, UniProt P00750); test: ID50 on homogeneous enzyme; format: biochemical
t-PA, sequence (P00750 36-562, species assumed): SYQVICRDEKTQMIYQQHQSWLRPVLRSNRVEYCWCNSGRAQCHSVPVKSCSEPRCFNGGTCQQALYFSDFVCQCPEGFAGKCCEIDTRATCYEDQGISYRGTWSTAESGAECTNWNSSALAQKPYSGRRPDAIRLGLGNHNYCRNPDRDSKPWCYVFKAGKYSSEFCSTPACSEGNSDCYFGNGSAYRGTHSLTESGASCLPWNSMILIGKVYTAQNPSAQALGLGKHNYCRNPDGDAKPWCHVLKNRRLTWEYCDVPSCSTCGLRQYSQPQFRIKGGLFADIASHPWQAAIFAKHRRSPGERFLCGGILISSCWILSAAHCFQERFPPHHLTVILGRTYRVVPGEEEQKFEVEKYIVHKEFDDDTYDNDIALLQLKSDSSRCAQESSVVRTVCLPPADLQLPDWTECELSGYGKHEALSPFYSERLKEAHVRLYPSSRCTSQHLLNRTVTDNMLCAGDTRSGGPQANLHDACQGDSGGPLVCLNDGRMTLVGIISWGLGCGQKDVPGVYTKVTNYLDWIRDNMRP

Gelatinase B [1] = target: T1, Gelatinase B (Homo sapiens, UniProt P14780); test: ID50 on homogeneous enzyme; format: biochemical
Target sequence in this assay (P14780 107-707): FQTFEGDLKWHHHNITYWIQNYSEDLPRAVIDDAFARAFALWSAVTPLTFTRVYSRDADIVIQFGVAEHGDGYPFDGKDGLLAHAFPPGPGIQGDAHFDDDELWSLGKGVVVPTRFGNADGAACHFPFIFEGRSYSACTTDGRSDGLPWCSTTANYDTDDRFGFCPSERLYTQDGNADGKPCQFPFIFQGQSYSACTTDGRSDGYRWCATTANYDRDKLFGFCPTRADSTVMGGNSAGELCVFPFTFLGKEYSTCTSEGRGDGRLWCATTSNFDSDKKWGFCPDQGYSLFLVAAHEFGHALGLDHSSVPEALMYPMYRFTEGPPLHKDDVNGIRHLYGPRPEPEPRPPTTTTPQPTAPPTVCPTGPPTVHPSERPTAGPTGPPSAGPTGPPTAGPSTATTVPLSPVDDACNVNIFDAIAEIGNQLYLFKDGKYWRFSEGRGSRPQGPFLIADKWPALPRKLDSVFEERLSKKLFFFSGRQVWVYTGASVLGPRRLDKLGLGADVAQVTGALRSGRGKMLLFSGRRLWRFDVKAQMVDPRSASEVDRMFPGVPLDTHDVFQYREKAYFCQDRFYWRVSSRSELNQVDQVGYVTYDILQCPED

Gelatinase A = target: T2, Gelatinase A (Homo sapiens, UniProt P08253); test: zymography of cerebrospinal fluid of MS / optic neuritis patients with inhibitor; format: biochemical; conditions: CSF of MS patients, increasing concentrations
T2 construct: from tissue; host or cells: cerebrospinal fluid of patients with multiple sclerosis or optic neuritis
T2 sequence (P08253 110-660): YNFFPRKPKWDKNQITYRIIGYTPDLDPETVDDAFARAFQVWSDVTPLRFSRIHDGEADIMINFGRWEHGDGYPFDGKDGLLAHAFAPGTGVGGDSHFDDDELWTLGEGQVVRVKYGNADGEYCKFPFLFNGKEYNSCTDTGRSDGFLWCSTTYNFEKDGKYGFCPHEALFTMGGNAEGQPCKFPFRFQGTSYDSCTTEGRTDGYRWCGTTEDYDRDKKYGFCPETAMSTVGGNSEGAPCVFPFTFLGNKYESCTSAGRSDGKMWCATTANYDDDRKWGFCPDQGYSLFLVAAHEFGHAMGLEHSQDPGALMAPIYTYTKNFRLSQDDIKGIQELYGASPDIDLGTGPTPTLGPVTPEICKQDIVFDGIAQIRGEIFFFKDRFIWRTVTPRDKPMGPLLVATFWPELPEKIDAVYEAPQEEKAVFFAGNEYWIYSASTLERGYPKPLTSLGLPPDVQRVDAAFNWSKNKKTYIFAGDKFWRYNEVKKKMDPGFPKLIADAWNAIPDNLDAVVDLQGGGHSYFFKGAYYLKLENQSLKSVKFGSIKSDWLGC
Description: (§1) Quantitative zymography was performed as described (7,8). Briefly, 40 µl of loading buffer was added to 40 µl of each sample and applied on 7.5% polyacrylamide gels which had been co-polymerised with 0.1% (w/v) gelatin. Stacking gels contained 5% polyacrylamide. The gels were run at 4°C for 16h at 90V. The gels were then incubated in washing buffer (50 mM Tris-HCl pH 7.5, 10mM CaCl2, O.O2% (W/V) NaN3, 2.5% (v/v) Triton X-100) at room temperature, 2x20 min to remove sodium dodecyl sulfate and overnight in developing buffer (50 mM Tris-HCl pH 7.5, 10mM CaCl2, O.O2% (w/v) NaN3, 1% (v/v) Triton X-100) at 37°C. […] The sites of gelatinase activity appeared as unstained bands on a blue background and were quantified by computerised image analysis through scanning densitometry with a PDI scanner (Pharmacia, Belgium) and the PDI software package. […]
(§2) Similar results were obtained when pure preparations of gelatinase B were tested or when gelatinase B was measured in the presence of D-penicillamine in body fluids or cell supernatants.
(§3) Figure 13. […] Gelatinase A (---) and B(_) activities in the CSF were measured by zymography in the absence or the presence of increasing concentrations of D-penicillamine. The scanning indices for each patient are calculated at the residual activity in the presence of inhibitor versus the activity without inhibitor. […]

[2] = system: human monocytic cell line THP-1; test: gelatinase B protein (zymography) and mRNA (northern blot) production in THP-1 cultures; format: cell-based; conditions: THP-1, LPS 1µg/ml, RA 100nM or untreated; D-penicillamine 50 µg/ml; 16 h
Description: Figure 14. […] Cultures of the human monocytic cell line THP-1 were stimulated with lipopolysaccharide (LPS, 1µg/ml), retinoic acid (RA, 100nM) or left untreated (CO) in the presence or absence of D-penicillamine (DPEN, 50 µg/ml). After 16 h total RNA was extracted and gelatinase B mRNA was measured by northern blot analysis with a human probe (41) (a). Gelatinase B protein in the cell culture fluids was assayed by zymographic analysis on gelatin substrate gels (b).

chronic relapsing EAE = chronic relapsing EAE in Biozzi AB/H mice; format: in vivo; conditions: 750 µg three times weekly from day 22 onwards
[3] = system: hyperacute experimental allergic encephalomyelitis (EAE); test: acute (hyperacute) EAE in SJL mice; conditions: intraperitoneal, equivalent of 27 to 375 µg per mouse daily
Description: In both hind paws 50µl of this emulsion was injected on day 0. On day 0 and 2, 50µl B.pertussis (200x10^9 bacteria/ml) were injected intraveneously. […] The control group received injections with 0.9% NaCl, used as excipiens. The animals were daily monitored and the disease and mortality were scored.).

Gelatinase B [4] = target: T1, Gelatinase B; test: zymography of cerebrospinal fluid of MS / optic neuritis patients with inhibitor; format: biochemical; parameters: from tissue; host or cells: cerebrospinal fluid of patients with multiple sclerosis or optic neuritis; conditions: CSF of MS patients, increasing concentrations
Description: as §1, §2, §3
Target sequence in this assay (P14780 94-707): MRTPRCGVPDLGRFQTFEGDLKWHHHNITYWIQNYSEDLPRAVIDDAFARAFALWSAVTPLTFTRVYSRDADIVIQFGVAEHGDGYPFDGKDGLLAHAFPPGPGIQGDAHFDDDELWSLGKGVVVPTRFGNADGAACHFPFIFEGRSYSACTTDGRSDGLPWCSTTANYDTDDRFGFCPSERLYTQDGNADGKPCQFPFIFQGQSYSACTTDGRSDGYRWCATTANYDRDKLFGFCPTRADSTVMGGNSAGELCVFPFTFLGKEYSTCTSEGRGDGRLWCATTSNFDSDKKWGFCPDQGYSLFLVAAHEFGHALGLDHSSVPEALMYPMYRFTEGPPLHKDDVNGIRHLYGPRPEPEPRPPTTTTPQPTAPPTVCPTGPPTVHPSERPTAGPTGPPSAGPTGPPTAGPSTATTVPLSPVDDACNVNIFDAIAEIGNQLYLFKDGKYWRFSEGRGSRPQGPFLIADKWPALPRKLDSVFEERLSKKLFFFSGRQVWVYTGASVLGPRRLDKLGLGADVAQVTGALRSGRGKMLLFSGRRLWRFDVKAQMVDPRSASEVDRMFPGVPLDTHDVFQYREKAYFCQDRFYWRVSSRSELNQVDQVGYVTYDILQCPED

[5] = target: T3, gelatinase B from neutrophils (Homo sapiens, UniProt P14780); test: gelatinase (inhibitor) microtiter plate assay with biotinylated gelatin; format: biochemical; parameters: endogenous in cells; host or cells: human neutrophils stimulated with lipopolysaccharide; conditioned medium; conditions: for gelatinase B inhibitory activity in the plate assay (in words): qualitative statements
T3 sequence (P14780 94-707): as above
Description: The measurement of gelatinase activity was based on the detection of non-degraded biotinylated gelatin with a streptavidin-peroxidase conjugate. This test is based on the biotin-avidin method described by Sorbi et al. (25) but modified to a one plate assay (schematically represented in Fig. 1.). Gelatin (1mg/ml) was dissolved in 0.1 M sodium bicarbonate pH 8.3 by heating to 40°C. Biotin-N-hydroxysuccinimide ester was dissolved in dimethylsulfoxide (Me2SO) and was added to the gelatin in a 15-fold molar excess. The mixture was allowed to react overnight at 4°C and the biotinylated gelatin was then dialyzed against phosphate buffered saline (PBS). Neutrophil granulocyte (Neu) medium was collected from human neutrophils after stimulation with lipopolysaccharide (1µg/ml) overnight at 37°C in Minimal Essential Medium. Cells were removed by 10 min centrifugation at 1000 g. Purified gelatinase was obtained by one-step affinity chromatography of neutrophil medium on a gelatin-sepharose column as described (8).
Modified flat bottom 96-well ELISA plates were coated overnight with 0.5 µg/ml avidin in distilled water. The plates were then blocked with 0.3% bovine serum albumin (BSA, Sigma) in PBS for 1 hour at 37°C. Biotinylated gelatin was diluted to 50 µg/ml and 100µl was added to the avidin-coated wells. After incubation for one hour at 20°C, the plate was rinsed with PBS. Medium containing the secreted gelatinases from human neutrophils (dilution range 1/3-1/3^11) and the inhibitors were diluted in incubation buffer (50 mM Tris-HCl pH 7.5, 10 mM CaCl2, 0.02% (W/V) NaN3, 1% (V/V) Triton X-100) and 100 µl of each were mixed. 190 µl of the mixture was added to the gelatin-coated plates and allowed to digest the gelatin overnight at 37°C. The plates were then washed with PBS and each well was incubated with 100 µl peroxidase-conjugated-streptavidin at a 1:2000 dilution for 1 hour at 37°C. After rinsing the plate, the ABTS substrate was added (0.5 mg/ml solution containing 0.1 M citric acid, 0.2 M Na2HPO4, pH 4.3, 0.07 µl/ml 30% H2O2) and the optical density was read at 405 nm after 10 min. incubation at room temperature. Additional information on published test systems used here for comparison.
Gelatin is biotinylated and bound to avidin-coated microtiter plates. By addition of gelatinases the number of free biotin groups decreases and proportionally less streptavidin-peroxidase is bound to the residual substrate. Bound streptavidin-peroxidase activity is measured spectrophotometrically by reaction of peroxide with ABTS. Inhibition of gelatinase is obtained by the addition of inhibitor to a known amount of gelatinase prior to application to the plates. The peroxidase activity increases proportionally with the inhibitory activity.
Plates were first coated with 10µg/ml avidin and 50µg/ml biotinylated gelatin (theoretically saturating the avidin binding sites). As the sensitivity of the assay is dependent on the detection of the minimal amount of degraded biotinylated gelatin, we investigated wether decreasing the amount of biotin-gelatin (50 µg/ml-23 ng/ml) bound to the avidin-coated (10µg/ml) plate increased the sensitivity of the assay. […] Thus it was verified whether a decrease in the avidin coating could make the assay more sensitive (Fig. 2). […] In all further examples plates were coated with 0.5 µg/ml avidin and 50 µg/ml gelatin-biotin.
The titration curves of gelatinase inhibition were always related to a blanc curve and this for enzyme concentrations within the slope of the curve (vertical dotted lines Fig. 3). The decrease in enzyme activity to which the inhibitor-incubated sample corresponded was defined as the inhibition factor (IF).

[6] = target: T3, gelatinase B from neutrophils; test: zymography inhibition assay, inhibitor in developing buffer; format: biochemical; parameters: The 92 kDa neutrophil gelatinase is indicated with an arrowhead; endogenous in cells; host or cells: human neutrophils; purified from conditioned medium on gelatin-Sepharose; conditions: qualitative statements
Description: Quantitative zymography was performed as described (7,8). Briefly, 40 µl of loading buffer was added to 40 µl of each sample and applied on 7.5% polyacrylamide gels which had been co-polymerised with 0.1% (w/v) gelatin. Stacking gels contained 5% polyacrylamide. The gels were run at 4°C for 16h at 90V. The gels were then incubated in washing buffer (50 mM Tris-HCl pH 7.5, 10mM CaCl2, O.O2% (W/V) NaN3, 2.5% (v/v) Triton X-100) at room temperature, 2x20 min to remove sodium dodecyl sulfate and overnight in developing buffer (50 mM Tris-HCl pH 7.5, 10mM CaCl2, O.O2% (w/v) NaN3, 1% (v/v) Triton X-100) at 37°C. The gels were then stained in Coomassie brilliant blue R-250 and destained in methanol/acetic acid. The sites of gelatinase activity appeared as unstained bands on a blue background and were quantified by computerised image analysis through scanning densitometry with a PDI scanner (Pharmacia, Belgium) and the PDI software package. For inhibition experiments, the inhibitors were dissolved in the developing buffer at the appropriate concentration. […] The enzyme activity was developed by staining of the substrate with Coomassie blue and quantification of the substrate digestion by scanning densitometry. […] The enzyme activity was developed by staining of the substrate with Coomassie blue and quantification of the substrate digestion by scanning densitometry. […]

Row | gelatinase B inhibitory activity in the plate assay (in words) ([5]; listed as minocyclin, HCl) | Inhibition factor (IF) ([5]; tetracycline concentration 1.67 mg/ml) | Inhibition factor (IF) ([5]; tetracycline concentration 3.33 mg/ml) | Structure (SMILES) | IC50 (u-PA) [µM] | IC50 (t-PA) [µM] | IC50 (Gelatinase B [1]) [µM] | inhibition of Gelatinase A in cerebrospinal fluid (in words) (Gelatinase A) | spontaneous and induced levels of gelatinase B mRNA [2] | spontaneous and induced levels of gelatinase B protein [2] | disease recurrencies in chronic relapsing EAE (chronic relapsing EAE) | development of disease symptoms in acute EAE [3] | inhibition of Gelatinase B in cerebrospinal fluid (in words) (Gelatinase B [4]) | gelatinase B inhibitory activity in the plate assay (in words) [5] | inhibition of gelatinase B on zymography (in words) [6] | gelatinase B inhibitory activity in the plate assay (in words) ([5]; listed as minocycline, HCl)
1 | – | – | – | CC(C)(S)[C@@H](N)C(=O)O [D-penicillamine] | 93.8 | 121 | 20.1 | inhibited in a dose-dependent way | remained constant | remained constant | abrogated the exacerbations; also recorded: abrogated the disease recurrencies | complete blockage; also recorded: inhibits in a dose-dependent way the development of disease symptoms | inhibited in a dose-dependent way | inhibitor of gelatinase B | inhibitor of gelatinase B | –
2 | active as an inhibitor | 3 | 8 | CN(C)c1ccc(O)c2c1C[C@H]1C[C@H]3[C@H](N(C)C)C(O)=C(C(N)=O)C(=O)[C@@]3(O)C(O)=C1C2=O [minocycline HCl] | – | – | – | – | – | – | – | – | – | – | inhibits gelatinase B in a dose-dependent way | confirmed in the plate assay; also recorded: active
